Data on 10 compounds can be found in US20260131016A1, “NOVEL AURISTATIN ANALOGS AND IMMUNOCONJUGATES THEREOF” (ADCENTRX THERAPEUTICS INC., priority 2021, published 2026).

SMILES strings stand for the structures. Read-outs that look alike come from different tables or passages of the source.

For the experiment, the system named is HCC1954 breast ductal carcinoma. In words: Cell viability (Cell Titer Glo 2.0) in HCC1954, 120 hours. The experiment is classed as cell-based. The method, then: HCC1954 breast ductal carcinoma and T47D cells (ATCC, Manassas, VA, USA) were seeded into 384-well white-walled culture plates and allowed to adhere for 2-4 hours. Cells were then treated at least in duplicate by addition of 5-fold serially diluted test articles prepared at 2× final concentration and incubated at 37° C. for 120 hours. Cell viability following treatment was determined by Cell Titer Glo 2.0 Assay (Promega, Madison, WI, USA) and normalized to non-treated controls. Dose-response relationships were analyzed using GraphPad Prism (La Jolla, CA, USA), and IC50 values were derived from non-linear regression analyses using a 4-parameter logistic equation.
(In general: ATP-based viability assays read luminescence as a measure of living cells.)

Setting [1] is: Homo sapiens, HCC1954, 120 h, read-out: IC50 (nM), in vitro potency in HCC1954.
[2] abbreviates: Trastuzumab conjugate of the numbered linker-payload, HCC1954, read-out: ADC (Trastuzumab) IC50 in HCC1954 assay.

Turning to `CC[C@H](C)[C@@H]([C@@H](CC(=O)N1CCC[C@H]1[C@H](OC)[C@@H](C)C(=O)N(C)CCc1ccccc1N)OC)N(C)C(=O)[C@@H](NC(=O)[C@@H](C(C)C)N(C)C)C(C)C` [Compound 15, (S)-N-((3R,4S,5S)-1-((S)-2-((1R,2R)-3-((2-aminophenethyl)(methyl)amino)-1-methoxy-2-methyl-3-oxopropyl)pyrrolidin-1-yl)-3-methoxy-5-methyl-1-oxoheptan-4-yl)-2-((R)-2-(dimethylamino)-3-methylbutanamido)-N,3-dimethylbutanamide], under setting [1], the IC50 (in general, the concentration at which inhibition is half-maximal) is less than 5 nM.
`CC[C@H](C)[C@@H]([C@@H](CC(=O)N1CCC[C@H]1[C@H](OC)[C@@H](C)C(=O)N(C)CCc1ccccc1N)OC)N(C)C(=O)[C@@H](NC(=O)[C@@H](C)N(C)C)C(C)C` [Compound 17, (S)-N-((3R,4S,5S)-1-((S)-2-((1R,2R)-3-((2-aminophenethyl)(methyl)amino)-1-methoxy-2-methyl-3-oxopropyl)pyrrolidin-1-yl)-3-methoxy-5-methyl-1-oxoheptan-4-yl)-2-((R)-2-(dimethylamino)propanamido)-N,3-dimethylbutanamide]: the 50% inhibitory concentration (IC50) under setting [1] was less than 5 nM.
For the compound `CC[C@H](C)[C@@H]([C@@H](CC(=O)N1CCC[C@H]1[C@H](OC)[C@@H](C)C(=O)N(C)CCc1ccccc1N)OC)N(C)C(=O)[C@@H](NC(=O)CN(C)C)C(C)C` [Compound 18, (S)-N-((3R,4S,5S)-1-((S)-2-((1R,2R)-3-((2-aminophenethyl)(methyl)amino)-1-methoxy-2-methyl-3-oxopropyl)pyrrolidin-1-yl)-3-methoxy-5-methyl-1-oxoheptan-4-yl)-2-(2-(dimethylamino)acetamido)-N,3-dimethylbutanamide], under setting [1], the half-inhibitory concentration (IC50) fell in the range of 5 to 10 nM.
On to `CC[C@H](C)[C@@H]([C@@H](CC(=O)N1CCC[C@H]1[C@H](OC)[C@@H](C)C(=O)N(C)CCc1ccc(N)cc1)OC)N(C)C(=O)[C@@H](NC(=O)CN(C)C)C(C)C` [Compound 27, (S)-N-((3R,4S,5S)-1-((S)-2-((IR,2R)-3-((4-aminophenethyl)(methyl)amino)-1-methoxy-2-methyl-3-oxopropyl)pyrrolidin-1-yl)-3-methoxy-5-methyl-1-oxoheptan-4-yl)-2-(2-(dimethylamino)acetamido)-N,3-dimethylbutanamide], for which the concentration for half-maximal inhibition (IC50) under setting [1] is less than 5 nM.
On to `CC[C@H](C)[C@@H]([C@@H](CC(=O)N1CCC[C@H]1[C@H](OC)[C@@H](C)C(=O)N(C)CCc1cccc(NC(=O)[C@H](C)NC(=O)[C@H](C)NC(=O)CN2C(=O)C=CC2=O)c1)OC)N(C)C(=O)[C@@H](NC(=O)[C@H](C(C)C)N(C)C)C(C)C` [Compound 28, (S)-2-((S)-2-(dimethylamino)-3-methylbutanamido)-N-((3R,4S,5S)-1-((S)-2-((1R,2R)-3-((3-((S)-2-((S)-2-(2-(2,5-dioxo-2,5-dihydro-1H-pyrrol-1-yl)acetamido)propanamido)propanamido)phenethyl)(methyl)amino)-1-methoxy-2-methyl-3-oxopropyl)pyrrolidin-1-yl)-3-methoxy-5-methyl-1-oxoheptan-4-yl)-N,3-dimethylbutanamide 2,2,2-trifluoroacetate], for which the IC50 under setting [2] is less than 5 nM.
Still for that read-out and setting: in the case of `CC[C@H](C)[C@@H]([C@@H](CC(=O)N1CCC[C@H]1[C@H](OC)[C@@H](C)C(=O)N(C)CCc1cccc(NC(=O)[C@H](C)NC(=O)[C@H](C)NC(=O)CN2C(=O)C=CC2=O)c1)OC)N(C)C(=O)[C@@H](NC(=O)[C@H](C)N(C)C)C(C)C` [Compound 29, (S)-2-((S)-2-(dimethylamino)propanamido)-N-((3R,4S,5S)-1-((S)-2-((1R,2R)-3-((3-((S)-2-((S)-2-(2-(2,5-dioxo-2,5-dihydro-1H-pyrrol-1-yl)acetamido)propanamido)propanamido)phenethyl)(methyl)amino)-1-methoxy-2-methyl-3-oxopropyl)pyrrolidin-1-yl)-3-methoxy-5-methyl-1-oxoheptan-4-yl)-N,3-dimethylbutanamide 2,2,2-trifluoroacetate] it was less than 5 nM; in that of `CC[C@H](C)[C@@H]([C@@H](CC(=O)N1CCC[C@H]1[C@H](OC)[C@@H](C)C(=O)N(C)CCc1cccc(NC(=O)[C@H](C)NC(=O)[C@H](C)NC(=O)CN2C(=O)C=CC2=O)c1)OC)N(C)C(=O)[C@@H](NC(=O)[C@@H](C)N(C)C)C(C)C` [Compound 30, (S)-2-((R)-2-(dimethylamino)propanamido)-N-((3R,4S,5S)-1-((S)-2-((1R,2R)-3-((3-((S)-2-((S)-2-(2-(2,5-dioxo-2,5-dihydro-1H-pyrrol-1-yl)acetamido)propanamido)propanamido)phenethyl)(methyl)amino)-1-methoxy-2-methyl-3-oxopropyl)pyrrolidin-1-yl)-3-methoxy-5-methyl-1-oxoheptan-4-yl)-N,3-dimethylbutanamide 2,2,2-trifluoroacetate], less than 5 nM; in that of `CC[C@H](C)[C@@H]([C@@H](CC(=O)N1CCC[C@H]1[C@H](OC)[C@@H](C)C(=O)N(C)CCc1cccc(NC(=O)[C@H](C)NC(=O)[C@H](C)NC(=O)CN2C(=O)C=CC2=O)c1)OC)N(C)C(=O)[C@@H](NC(=O)CN(C)C)C(C)C` [Compound 31, (S)-2-(2-(dimethylamino)acetamido)-N-((3R,4S,5S)-1-((S)-2-((IR,2R)-3-((3-((S)-2-((S)-2-(2-(2,5-dioxo-2,5-dihydro-1H-pyrrol-1-yl)acetamido)propanamido)propanamido)phenethyl)(methyl)amino)-1-methoxy-2-methyl-3-oxopropyl)pyrrolidin-1-yl)-3-methoxy-5-methyl-1-oxoheptan-4-yl)-N,3-dimethylbutanamide 2,2,2-trifluoroacetate], less than 5 nM.
For `CC[C@H](C)[C@@H]([C@@H](CC(=O)N1CCC[C@H]1[C@H](OC)[C@@H](C)C(=O)N(C)CCc1cccc(NC(=O)[C@H](C)NC(=O)[C@H](C)NC(=O)CN2C(=O)C=CC2=O)c1)OC)N(C)C(=O)[C@@H](NC(=O)C(C)(C)N(C)C)C(C)C` [Compound 32, (S)-2-(2-(dimethylamino)-2-methylpropanamido)-N-((3R,4S,5S)-1-((S)-2-((1R,2R)-3-((3-((S)-2-((S)-2-(2-(2,5-dioxo-2,5-dihydro-1H-pyrrol-1-yl)acetamido)propanamido)propanamido)phenethyl)(methyl)amino)-1-methoxy-2-methyl-3-oxopropyl)pyrrolidin-1-yl)-3-methoxy-5-methyl-1-oxoheptan-4-yl)-N,3-dimethylbutanamide 2,2,2-trifluoroacetate], the IC50 under setting [2] was less than 5 nM.
For `CC[C@H](C)[C@@H]([C@@H](CC(=O)N1CCC[C@H]1[C@H](OC)[C@@H](C)C(=O)N(C)CCc1cccc(NC(=O)[C@H](C)NC(=O)[C@H](C)NC(=O)CN2C(=O)C=CC2=O)c1)OC)N(C)C(=O)[C@@H](NC(=O)C1(N(C)C)CCC1)C(C)C` [Compound 33, 1-(dimethylamino)-N-((S)-1-(((3R,4S,5S)-1-((S)-2-((1R,2R)-3-((3-((S)-2-((S)-2-(2-(2,5-dioxo-2,5-dihydro-1H-pyrrol-1-yl)acetamido)propanamido)propanamido)phenethyl)(methyl)amino)-1-methoxy-2-methyl-3-oxopropyl)pyrrolidin-1-yl)-3-methoxy-5-methyl-1-oxoheptan-4-yl)(methyl)amino)-3-methyl-1-oxobutan-2-yl)cyclobutanecarboxamide 2,2,2-trifluoroacetate], the IC50 under setting [2] was more than 10 nM.
